# Laboratory results as given in PMC3216550 (Scientific Reports, 2011).
# B1: paAzoR1 (Pseudomonas aeruginosa PAO1) (protein)
# chain: MSRILAVHASPRGERSQSRRLAEVFLAAYREAHPQARVARREVGRVPLPAVTEAFVAAAFHPQPEQRSLAMQADLALSDQLVGELFDSDLLVISTPMYNFSVPSGLKAWIDQIVRLGVTFDFVLDNGVAQYRPLLRGKRALIVTSRGGHGFGPGGENQAMNHADPWLRTALGFIGIDEVTVVAAEGEESGGRSFEDSCDEAEQRLLALARSA
# Tests used:
# paAzoR1 = biological target: T1, paAzoR1 (Pseudomonas aeruginosa, UniProt Q9I5F3); test: X-ray crystal structure, […] Å; type: binding; settings: complex with nitrofurazone; FMN in active site
# T1 sequence (Q9I5F3 1-212): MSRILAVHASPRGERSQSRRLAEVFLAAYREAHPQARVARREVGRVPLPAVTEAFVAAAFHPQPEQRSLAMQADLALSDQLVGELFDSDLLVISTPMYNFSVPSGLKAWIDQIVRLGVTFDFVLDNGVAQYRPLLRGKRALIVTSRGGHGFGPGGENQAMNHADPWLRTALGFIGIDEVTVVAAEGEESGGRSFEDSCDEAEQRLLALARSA
# purified protein = substrate: NC(=O)N/N=C/c1ccc([N+](=O)[O-])o1; test: purified protein; settings: 750 μM NADPH, 20 mM Tris-HCl pH 8.0, 100 mM NaCl
Molecule,"X-ray crystal structure, 2.08 Å (paAzoR1)",Km (purified protein) [µM]
Cc1cc2nc3c(=O)[nH]c(=O)nc-3n(C[C@H](O)[C@H](O)[C@H](O)COP(=O)(O)O)c2cc1C [FMN],The FMN is shown with yellow carbon atoms,–
B1,–,15.7 ± 1.6
